Consider 28 compounds from patent publication US9522888B2, “Substituted bicyclic compounds” (BRISTOL-MYERS SQUIBB COMPANY, priority 2014, dated 2016).

The target in experiment [1] is S1P3 (membranes prepared from EDG3-Gal5-bla HEK293T cells) (Homo sapiens (Human), UniProt Q99500). Nature of the experiment: Receptor [35S] GTPγS binding assay (S1P3 GTPγS). In kind it is biochemical. The protocol: (§1) Receptor [^35S] GTPγS Binding Assays: (S1P1 GTPγS/S1P3 GTPγS)
(§2) Compounds were loaded in a 384 Falcon v-bottom plate (0.5 μl/well in a 11 point, 3-fold dilution). Membranes prepared from S1P1/CHO cells or EDG3-Gal5-bla HEK293T cells (EDG3 equivalent S1P3) were added to the compound plate (40 μl/well, final protein 3 μg/well) with MULTIDROP®. [^35S] GTP (1250 Ci/mmol, Perkin Elmer) was diluted in assay buffer: 20 mM HEPES, pH7.5, 10 mM MgCl2, 150 mM NaCl, 1 mM EGTA (ethylene glycol tetraacetic acid), 1 mM DTT (Dithiothreitol), 10 μM GDP, 0.1% fatty acid free BSA, and 10 μg/ml Saponin to 0.4 nM. 40 μl of the [^35S] GTP solution was added to the compound plate with a final concentration of 0.2 nM. The reaction was kept at room temperature for 45 min. At the end of incubation, all the mixtures in the compound plate were transferred to Millipore 384-well FB filter plates via the VELOCITY11® Vprep liquid handler. The filter plate was washed with water 4 times by using the manifold Embla plate washer and dried at 60° C. for 45 min. MicroScint 20 scintillation fluid (30 μl) was added to each well for counting on the Packard TOPCOUNT®.
A smaller value for GTPγS S1P1 EC50 value indicated greater activity for the compound in the GTPγS S1P1 binding assay. A larger value for the GTPγS S1P3 EC50 value indicated less activity in the GTPγS S1P3 binding assay. […] Thus the compounds of the present invention may be used in treating, preventing, or curing various S1P1 receptor-related conditions while reducing or minimizing the side effects due to S1P3 activity. The selectivity of the compounds of the present invention indicate their potential use in treating, preventing, or curing autoimmune and inflammatory diseases such as multiple sclerosis, rheumatoid arthritis, inflammatory bowel disease, lupus, psoriasis, or vascular diseases, while reducing or minimizing possible side effects due to S1P3 activity. Other potential uses of the compounds of the present invention include minimizing or reducing rejection of transplanted organs, while reducing or minimizing side effects due to S1P3 activity.

Experiment [2] has as its target S1P1 (membranes prepared from S1P1/CHO cells) (Homo sapiens (Human), UniProt P21453). Nature of the experiment: Receptor [35S] GTPγS binding assay (S1P1 GTPγS). It is filed as biochemical. The conditions noted are these: for activity as an agonist of S1P1: GTPγS S1P1 binding assay, result in words. The method, then:
as §1
as §2, with “TOPCOUNT®. […]” for “TOPCOUNT®.”

The target of another experiment is human S1P1 (Homo sapiens (Human), UniProt P21453). Nature of the experiment: S1P1 binding assay (33P-S1P radioligand competition, CHO cell membranes). The protocol: Membranes were prepared from CHO cells expressing human S1P1. Cells pellets (1×10^9 cells/pellet) were suspended in buffer containing 20 mM HEPES (4-(2-hydroxyethyl)-1-piperazineethanesulfonic acid), pH 7.5, 50 mM NaCl, 2 mM EDTA (Ethylenediaminetetraacetic acid) and Protease Inhibitor cocktail (Roche), and disrupted on ice using the Polytron homogenizer. The homogenate was centrifuged at 20,000 rpm (48,000 g) and the supernatant was discarded. The membrane pellets were resuspended in buffer containing 50 mM HEPES, pH 7.5, 100 mM NaCl, 1 mM MgCl2, 2 mM EDTA and stored in aliquots at −80° C. after protein concentration determination.
Sequence of human S1P1 (P21453 whole entry): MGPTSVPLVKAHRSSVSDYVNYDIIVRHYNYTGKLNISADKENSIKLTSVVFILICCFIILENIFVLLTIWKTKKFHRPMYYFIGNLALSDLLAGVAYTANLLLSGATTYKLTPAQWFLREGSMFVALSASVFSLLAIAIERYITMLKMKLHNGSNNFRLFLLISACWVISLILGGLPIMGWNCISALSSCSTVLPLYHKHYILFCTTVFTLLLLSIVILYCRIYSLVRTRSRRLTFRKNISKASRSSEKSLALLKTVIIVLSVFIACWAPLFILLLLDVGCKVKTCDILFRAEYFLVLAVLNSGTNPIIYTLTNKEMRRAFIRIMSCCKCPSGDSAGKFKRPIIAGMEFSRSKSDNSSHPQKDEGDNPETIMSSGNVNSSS

Another experiment has as its target hS1P1/CHO cells (Homo sapiens (Human), UniProt P21453). Nature of the experiment: hS1P1 ERK phosphorylation (S1P1 pERK). It is filed as cell-based. Particulars: phosphate examples. The protocol: hS1P1 ERK Phosphorylation (S1P1 pERK)
hS1P1/CHO cells were plated into BD Amine 384-well plates the day before the assay. On the day of the assay, growth medium was removed and replaced with serum-free medium (Ham's F-12 Invitrogen) and incubated for 2 hours. Test compounds pre-diluted in HBSS (Gibco)/20 mM HEPES (Gibco) were transferred to the cell plates and incubated for 7 minutes at 37° C. Cells were lysed in lysis buffer (Perkin Elmer) and phospho-ERK was measured using the SureFire pERK kit (Perkin Elmer) as described by the manufacturer. Data was plotted as percentage activation of the test compound relative to the efficacy of 10 μM S1P.

The mark [3] stands for this setting: [35S]GTPγS, EDG3-Gal5-bla HEK293T cell membranes, read-out: GTPγS S1P3 EC50.
Setting [4] is: phosphate examples, read-out: S1P3 GTPγS.
Where [5] appears, read: phosphate examples, read-out: S1P1 GTPγS.
[6] abbreviates: phosphate examples, read-out: S1P1 Binding.
[7] abbreviates: [35S]GTPγS, S1P1/CHO cell membranes, read-out: GTPγS S1P1 EC50.
[8] abbreviates: 33P-S1P competition, membranes of CHO cells expressing human S1P1, read-out: S1P1 Binding IC50.

Like-named read-outs stand apart in the source and are kept apart here.

Sequence of S1P3 (membranes prepared from EDG3-Gal5-bla HEK293T cells) (Q99500 whole entry): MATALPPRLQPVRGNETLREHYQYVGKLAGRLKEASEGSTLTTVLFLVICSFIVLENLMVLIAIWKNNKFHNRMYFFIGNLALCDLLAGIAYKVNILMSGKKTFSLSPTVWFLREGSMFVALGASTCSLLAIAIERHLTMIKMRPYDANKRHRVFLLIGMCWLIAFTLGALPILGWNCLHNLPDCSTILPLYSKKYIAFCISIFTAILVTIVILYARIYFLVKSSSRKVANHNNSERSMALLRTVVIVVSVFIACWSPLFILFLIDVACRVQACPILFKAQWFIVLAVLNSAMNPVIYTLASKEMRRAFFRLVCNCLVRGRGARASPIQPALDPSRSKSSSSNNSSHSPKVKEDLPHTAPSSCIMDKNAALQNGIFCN
Sequence of S1P1 (membranes prepared from S1P1/CHO cells) (P21453 whole entry): as the sequence (P21453 whole entry) above
Sequence of hS1P1/CHO cells (P21453 whole entry): as above

Take `COc1ccccc1CC[C@@H]1CCc2cc([C@H]3CC[C@](N)(COP(=O)(O)O)C3)ccc2C1` (single isomer, unassigned) [Example 697]: the EC50 in experiment [1] (setting [3]) is greater than 1000 nM.

As to `COc1cccc(OCC2CCc3cc([C@@H]4CC[C@](N)(COP(=O)(O)O)C4)ccc3C2)c1` (single isomer, unassigned) [Example 701], the EC50 in experiment [1] (setting [3]) is greater than 1250 nM.

For `CCCCCC(=O)OC1CCc2cc([C@H]3CC[C@](N)(COP(=O)(O)O)C3)ccc2C1` (stereo partly drawn) [compound 623], the values for the EC50 in experiment [1] (setting [4]) and in experiment [2] (setting [5]) were greater than 625 nM and less than 10 nM, respectively. Further, the IC50 at human S1P1 (setting [6]) is less than 10 nM.

Turning to `N[C@]1(COP(=O)(O)O)CCC(c2ccc3c(c2)CN(CCCc2ccccc2)C3=O)C1` (stereo partly drawn) [compound 614], the results for the EC50 in experiment [1] (setting [4]) and in experiment [2] (setting [5]) were greater than 625 nM and 100 to 1000 nM, respectively. For the same compound, the IC50 on human S1P1 (setting [6]) lay in the range of 1000 to 10000 nM.

In the case of `CCCCCCO[C@@H]1CCc2cc([C@@H]3CC[C@](N)(COP(=O)(O)O)C3)ccc2C1` [compound 435], the EC50 in experiment [1] (setting [4]) was greater than 625 nM. Also, the IC50 on human S1P1 (setting [6]) was in the range of 10 to 100 nM.

As for `CCCCCCN1CCc2cc([C@H]3CC[C@](N)(COP(=O)(O)O)C3)ccc2C1=O` [compound 416], in experiment [1] (setting [4]), the EC50 was greater than 625 nM. Besides, the IC50 on human S1P1 (setting [6]) lay in the range of 1000 to 10000 nM.

In the case of `COc1ccccc1CC[C@@H]1CCc2cc([C@@H]3CC[C@](N)(COP(=O)(O)O)C3)ccc2C1` [Example 699], in experiment [1] (setting [3]), the EC50 was greater than 625 nM.

Take `COCCCCCC1CCc2cc([C@H]3CC[C@](N)(COP(=O)(O)O)C3)ccc2C1` (single isomer, unassigned) [Example 690]: the figures for the EC50 in experiment [1] (setting [3]) and in experiment [2] (setting [7]) were greater than 625 nM and 21.4 nM, respectively. Further, the IC50 on human S1P1 (setting [8]) came out at 3 nM.

For the compound `CCCCCC(=O)N1CCc2cc([C@H]3CC[C@@](N)(COP(=O)(O)O)C3)ccc2C1` [compound 617], in experiment [1] (setting [4]), the EC50 is greater than 625 nM. At human S1P1 (setting [6]), the IC50 lay in the range of 100 to 1000 nM.

Consider `CCOCCCC1CCc2cc([C@H]3CC[C@](N)(COP(=O)(O)O)C3)ccc2C1` (single isomer, unassigned) [Example 695], for which the EC50 in experiment [1] (setting [3]) is greater than 625 nM.

As to `COc1cccc(CCC2CCc3cc([C@H]4CC[C@](N)(COP(=O)(O)O)C4)ccc3C2)c1` (single isomer, unassigned) [Example 693], the EC50 in experiment [1] (setting [3]) was greater than 4160 nM.

`COc1ccccc1CCC1CCc2cc([C@H]3CC[C@](N)(COP(=O)(O)O)C3)ccc2C1` (stereo partly drawn) [Example 697]: the “activity as an agonist of S1P1” value in experiment [2] is recorded as “possessed activity as an agonist of S1P1”.

Consider `COc1ccccc1CCC1CCc2cc(C3CC[C@](N)(COP(=O)(O)O)C3)ccc2C1` (single isomer, unassigned) [Example 698], for which the EC50 in experiment [1] (setting [3]) is greater than 625 nM.

Consider `N[C@@]1(COP(=O)(O)O)CC[C@@H](c2ccc3c(c2)CC[C@H](OCCOCc2ccccc2)C3)C1` [compound 581], for which the EC50 is greater than 625 nM in experiment [1] (setting [4]) and less than 10 nM in experiment [2] (setting [5]). For the same compound, on human S1P1 (setting [6]), the IC50 was less than 10 nM.

Consider `CCCCCCC1CCc2cc([C@H]3CC[C@](N)(COP(=O)(O)O)C3)ccc2O1` (stereo partly drawn) [compound 419], for which the EC50 in experiment [1] (setting [4]) is greater than 625 nM; on hS1P1/CHO cells, 10 to 100 nM.

Consider `CCCCCC[C@H]1CCc2cc([C@H]3CC[C@](N)(COP(=O)(O)O)C3)c(C)cc2C1` [compound 622], for which the figures for the EC50 in experiment [1] (setting [4]) and in experiment [2] (setting [5]) were greater than 625 nM and less than 10 nM, respectively. In addition, the IC50 on human S1P1 (setting [6]) was less than 10 nM.

As for `COCCCCCC1CCc2cc([C@H]3CC[C@](N)(COP(=O)(O)O)C3)ccc2C1` (single isomer, unassigned) [Example 689], the “selectivity over S1P3” value in experiment [1] (GTPγS S1P1 versus GTPγS S1P3, result in words) is “selective over S1P3”. Moreover, the EC50 in experiment [1] (setting [3]) was greater than 2000 nM; in experiment [1] (membranes prepared from EDG3-Gal5-bla HEK293T cells, read-out: GTPγS S1P3 EC50) it was greater than 2000 nM; in experiment [2] (setting [7]), 5.7 nM. Also, the “activity as an agonist of S1P1” value in experiment [2] is given as “possessed activity as an agonist of S1P1”. Moreover, the IC50 on human S1P1 (setting [8]) worked out at 1.7 nM.

Take `CCCCCC[C@H]1CCc2cc([C@H]3CC[C@](N)(COP(=O)(O)O)C3)c(I)cc2C1` [compound 620]: the EC50 is greater than 625 nM in experiment [1] (setting [4]) and less than 10 nM in experiment [2] (setting [5]). For the same compound, the IC50 at human S1P1 (setting [6]) was 10 to 100 nM.

`COCCCCCC1CCc2cc([C@@H]3CC[C@](N)(COP(=O)(O)O)C3)ccc2C1` (single isomer, unassigned) [Example 692]: the EC50 in experiment [1] (setting [3]) is greater than 625 nM. Besides, on human S1P1 (setting [8]), the IC50 was found to be 2.3 nM.

With `CCOCCCC1CCc2cc([C@H]3CC[C@](N)(COP(=O)(O)O)C3)ccc2C1` (single isomer, unassigned) [Example 696], the values for the EC50 in experiment [1] (setting [3]) and in experiment [2] (setting [7]) were greater than 1000 nM and 1.2 nM, respectively.

`COc1cccc(CCC2CCc3cc([C@H]4CC[C@](N)(COP(=O)(O)O)C4)ccc3C2)c1` (single isomer, unassigned) [Example 694]: the EC50 in experiment [1] (setting [3]) was greater than 1250 nM; in experiment [2] (setting [7]), 38.6 nM.

In the case of `COc1cccc(OCC2CCc3cc([C@@H]4CC[C@](N)(COP(=O)(O)O)C4)ccc3C2)c1` (single isomer, unassigned) [Example 702], the EC50 in experiment [1] (setting [3]) was greater than 625 nM.

In the case of `CC(C)=CCOCCO[C@@H]1CCc2cc(C3CCC(N)(COP(=O)(O)O)C3)ccc2C1` (single isomer, unassigned) [compound 580], the results for the EC50 in experiment [1] (setting [4]) and in experiment [2] (setting [5]) were greater than 625 nM and 10 to 100 nM, respectively. Besides, the IC50 at human S1P1 (setting [6]) lay within 10 to 100 nM.

As for `C=CCCOCCO[C@H]1CCc2cc([C@@H]3CC[C@@](N)(COP(=O)(O)O)C3)ccc2C1` [compound 584], the EC50 is greater than 625 nM in experiment [1] (setting [4]) and less than 10 nM in experiment [2] (setting [5]). Also, the IC50 at human S1P1 (setting [6]) was less than 10 nM.

On to `CC(C)CO/N=C1/CCc2cc([C@H]3CC[C@](N)(COP(=O)(O)O)C3)ccc2C1` [compound 666], for which the values for the EC50 in experiment [1] (setting [4]) and in experiment [2] (setting [5]) were greater than 625 nM and 100 to 1000 nM, respectively. In addition, the IC50 on human S1P1 (setting [6]) lay within 100 to 1000 nM.

With `CC1(C)c2cc([C@@H]3CC[C@](N)(COP(=O)(O)O)C3)ccc2C(=O)N1CCCc1ccccc1` [compound 615], the EC50 is greater than 625 nM in experiment [1] (setting [4]) and 100 to 1000 nM in experiment [2] (setting [5]). Moreover, the IC50 on human S1P1 (setting [6]) was 100 to 1000 nM.

Turning to `N[C@@]1(COP(=O)(O)O)CC[C@@H](c2ccc3c(c2)CC[C@H](OCCOC2CCCCC2)C3)C1` (single isomer, unassigned) [compound 585], the EC50 is greater than 625 nM in experiment [1] (setting [4]) and 10 to 100 nM in experiment [2] (setting [5]).

As for `CCCCCCC1CCc2nc([C@@H]3CC[C@@](N)(COP(=O)(O)O)C3)ccc2C1` (stereo partly drawn) [compound 612], the EC50 in experiment [1] (setting [4]) was greater than 625 nM; in experiment [2] (setting [5]) it was 10 to 100 nM. On human S1P1 (setting [6]), the IC50 lay within 1000 to 10000 nM.
